According to patent US20250353891A1 (MEDIMMUNE LIMITED, priority 2022, published 2025):
Like-named read-outs stand apart in the source and are kept apart here. Starred links: 1 amine or outer side, 2 acyl side, 3 side chain; linkers in the order of their positions; H or OH if unused. Non-standard residues stand in square brackets, D forms with d. Residues, ends and D or L forms follow the SMILES beside them. Groups on a side chain read outwards from the residue. *: point of attachment. C20 diacid = O=C(O)CCCCCCCCCCCCCCCCCCC(=O)*; C18 diacid = O=C(O)CCCCCCCCCCCCCCCCC(=O)*; γGlu = O=C(O)[C@H](CCC(=O)[*:2])N[*:1]; Stearoyl = CCCCCCCCCCCCCCCCCC(=O)*; αMeF = C[C@](N)(Cc1ccccc1)C(=O)O; PEG2 = NCCOCCOCCC(=O)O; AEEA = NCCOCCOCC(=O)O; Aib = CC(C)(N)C(=O)O

Experiments:
[1] = molecular target: human glucagon receptor (hGCGR) (Homo sapiens, UniProt P47871); experiment: cAMP production (HTRF) in CHO cells expressing hGCGR; format: cell-based; design: expressed in transfected cells; conditions: cAMP in CHO hGCGR cells, geometric mean, read-out: hGluc-R EC50
human glucagon receptor (hGCGR), sequence (P47871 26-477): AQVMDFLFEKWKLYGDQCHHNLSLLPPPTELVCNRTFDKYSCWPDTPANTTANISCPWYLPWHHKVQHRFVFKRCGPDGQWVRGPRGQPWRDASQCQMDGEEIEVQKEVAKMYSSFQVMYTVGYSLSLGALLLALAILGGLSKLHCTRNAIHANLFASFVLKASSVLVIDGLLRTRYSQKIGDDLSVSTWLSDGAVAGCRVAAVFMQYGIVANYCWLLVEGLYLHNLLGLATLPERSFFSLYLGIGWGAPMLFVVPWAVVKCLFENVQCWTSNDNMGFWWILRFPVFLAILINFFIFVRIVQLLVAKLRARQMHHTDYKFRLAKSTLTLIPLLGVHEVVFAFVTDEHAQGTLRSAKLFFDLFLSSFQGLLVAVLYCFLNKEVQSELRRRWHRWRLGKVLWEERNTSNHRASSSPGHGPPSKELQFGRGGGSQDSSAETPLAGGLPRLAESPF
Summary of the method: (§1)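 Potency values represent EC50 from 4-parameter logistic curves of HTRF % Delta F signal. Receptor-expressing CHO cells (hGCGR 2×10^5 cells/mL, hGLP-1R 1×10^5 cells/mL) were exposed for 30 min at room temperature before two-step cAMP detection.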

[2] = Proteolytic resistance to FasSSIF/Pancreatin; format: in vitro ADME; conditions: simulated intestinal fluid
Summary of the method: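 Peptide (1.0 mg) in pre-warmed FasSSIF, proteolysis started with fresh FasSSIF/USP Pancreatin and held at 37 °C. Aliquots at 0, 5, 10, 15, 30 min quenched in 10% TFA; remaining intact peptide estimated by RP-HPLC peak area, UV 210 nm.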

[3] = molecular target: human GLP-1 receptor (hGLP-1R) (Homo sapiens, UniProt P43220); experiment: cAMP production (HTRF) in CHO cells expressing hGLP-1R; format: cell-based; design: expressed in transfected cells; conditions: for EC50: cAMP in CHO hGLP-1R cells, geometric mean, read-out: hGLP-1R EC50; for % Relative Potency Ratio: % GLP-1R activity relative to GLP-1 / % GlucR activity relative to glucagon
human GLP-1 receptor (hGLP-1R), sequence (P43220 24-463): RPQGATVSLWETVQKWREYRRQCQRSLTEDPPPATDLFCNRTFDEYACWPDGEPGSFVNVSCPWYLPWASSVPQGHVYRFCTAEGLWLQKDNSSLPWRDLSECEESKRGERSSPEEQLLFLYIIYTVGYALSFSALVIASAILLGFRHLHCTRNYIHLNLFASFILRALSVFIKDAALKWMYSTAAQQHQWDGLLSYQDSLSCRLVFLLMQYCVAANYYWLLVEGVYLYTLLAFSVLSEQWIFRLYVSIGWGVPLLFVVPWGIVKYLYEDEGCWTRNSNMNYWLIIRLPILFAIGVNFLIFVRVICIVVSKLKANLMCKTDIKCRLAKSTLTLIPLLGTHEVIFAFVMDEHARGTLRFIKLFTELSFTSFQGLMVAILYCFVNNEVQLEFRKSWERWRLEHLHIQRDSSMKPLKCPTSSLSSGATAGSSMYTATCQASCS
Summary of the method: as §1

[4] = Proteolytic resistance to FasSSGF containing porcine pancreatic pepsin; format: in vitro ADME; conditions: pig, simulated gastric fluid
Description: Stimulated Gastric Fluid (FasSSGF) Containing Porcine Pancreatic Pepsin Lyophilized porcine pancreatic pepsin (Sigma: P7012) was reconstituted to 0.5 mg/mL (˜2500 units/mL) in freshly prepared FasSSGF (Biorelevant media) to give the enzyme stock solution. Peptide stock solution was prepared to a concentration of 250 μM (˜1.0 mg/mL) in FasSSGF. 200 μL ([…], ˜250 units) of pepsin stock solution was added to 200 μL of peptide solution (1.0 mg/mL, ˜100 μg of peptide, ˜25 nmoles) and the mixture was co-incubated in a temperature-regulated incubator at 37° C. for the duration of the experiment. 30 μL aliquot of the peptide-enzyme mixture was periodically withdrawn (t=0, 5, 10, 15, and 30 min) and quenched immediately by addition of 80 μL of 0.1M ammonium bicarbonate solution in water/acetonitrile (4:1, pH 8) to arrest proteolytic activity. 30 μL aliquot was analyzed by analytical RP-HPLC. Analytical RP-HPLC method: Agilent Polaris C8-A column (4.6×100 mm, 3 micron) eluted with a linear binary gradient of 10-90% MeCN (0.1% TFA v/v) in water (0.1% TFA v/v) over either 10 or 15 mins at 1.5 mL min-1 at 40° C. with detection by UV absorption at 210 nm. Manual integration (AUC) allowed estimation of remaining intact peptide over the time course of the experiment.

[5] = molecular target: T1, recombinant Neprilysin (Homo sapiens, UniProt P08473); experiment: Proteolytic resistance to neprilysin; format: in vitro ADME; conditions: pH 8.3; for remaining at 4 h / remaining at 24 h: isolated enzyme neprilysin
T1 construct: purchased R&D Systems 1182-ZNC-010
T1 sequence (P08473 52-750 limits assumed): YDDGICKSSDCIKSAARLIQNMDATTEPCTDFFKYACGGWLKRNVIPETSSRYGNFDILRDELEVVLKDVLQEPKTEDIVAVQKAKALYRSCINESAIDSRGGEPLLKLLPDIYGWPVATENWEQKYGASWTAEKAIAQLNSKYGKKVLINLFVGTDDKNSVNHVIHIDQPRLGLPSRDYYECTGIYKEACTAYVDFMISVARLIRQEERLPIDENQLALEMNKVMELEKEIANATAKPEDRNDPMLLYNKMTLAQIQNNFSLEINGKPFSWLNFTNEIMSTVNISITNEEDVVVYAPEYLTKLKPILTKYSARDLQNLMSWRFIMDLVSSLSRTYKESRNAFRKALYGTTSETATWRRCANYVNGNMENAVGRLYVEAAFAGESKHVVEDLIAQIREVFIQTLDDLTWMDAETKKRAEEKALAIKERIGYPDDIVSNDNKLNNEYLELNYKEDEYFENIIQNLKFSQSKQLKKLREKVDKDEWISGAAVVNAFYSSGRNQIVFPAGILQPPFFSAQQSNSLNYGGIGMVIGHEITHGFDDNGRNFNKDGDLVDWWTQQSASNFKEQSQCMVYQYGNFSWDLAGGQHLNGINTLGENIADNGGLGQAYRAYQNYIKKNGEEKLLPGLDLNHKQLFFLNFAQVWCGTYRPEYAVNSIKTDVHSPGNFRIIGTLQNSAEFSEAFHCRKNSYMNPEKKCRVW
Description: 10.0 μg (˜10 units) recombinant Neprilysin (R&D Systems: 1182-ZNC-010) was reconstituted to 100 μL (100 μg/mL, ˜100 units/mL) in assay buffer (50 mM Tris, 50 mM NaCl, 50 mM NaHCO3, adjusted to pH 8.3) to give the enzyme stock solution. Peptide stock solutions were prepared to a concentration of ˜250 μM (˜1.0 mg/mL of 4 kDa peptide) in assay buffer. 100 μL (10 μg, ˜10 units) of neprilysin stock solution was added to 100 μL of peptide stock solution (1.0 mg/mL, ˜100 μg of peptide) and the mixture was co-incubated in a temperature regulated incubator at 37° C. for the duration of the experiment. 25 μL aliquots (˜ 12.5 μg initial peptide) of the peptide-enzyme mixture were periodically withdrawn (t=0, 30 mins, 1 h, 2 h, 4 h and 24 h) and quenched immediately by addition to an equal volume ([…]) of 10% TFA (v/v) in 1:1 water/acetonitrile to arrest proteolytic activity. The quenched aliquot centrifuged at 7800 rpm, and 30 μL of the supernatant was analyzed by analytical RP-HPLC as follows: Analytical RP-HPLC method: Agilent Polaris C8-A column (4.6×100 mm, 3 micron) eluted with a linear binary gradient of 10-90% MeCN (0.1% TFA v/v) in water (0.1% TFA v/v) over either 10 or 15 mins at 1.5 mL min-1 at 40° C. with detection by UV absorption at 210 nm. Manual integration (AUC) allowed estimation of remaining intact peptide over the time course of the experiment.

[6] = test system: GLP-1R knockout (KO) mice; experiment: Glucose change in GLP-1R knockout mice; format: in vivo, mouse; conditions: GLP-1R KO mice, s.c., 3 nmol/kg, 120 min vs 0 min, no somatostatin pretreatment
Summary of the method: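 GLP-1R knockout mice (n=4-8/group, sorted by body weight) were fasted 2 h, and in some studies pretreated with octreotide 10 mg/kg 30 min before peptide injection. Mice were reused up to 3 times with at least 1-week wash-out.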

[7] = test system: wildtype (WT) mice; experiment: Glucose change in wildtype mice; format: in vivo, mouse; conditions: s.c., 3 nmol/kg, 120 min vs 0 min, no somatostatin pretreatment
Summary of the method: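 Wildtype mice aged 8-14 weeks, fasted 2 h, sometimes pre-treated with octreotide 10 mg/kg 30 min before peptide injection. Blood glucose by glucometer at -30, 0, 30, 60, 120, 180, 240 and 360 min; n=4-8/group, mice reused up to 3 times with ≥1 week wash-out.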

[8] = in vivo; conditions: male, C57BL/6, mouse, 10 nmol/kg
Description: Selected test peptides (n=8) were profiled for pharmacokinetic (PK) properties in the mouse after single intravenous (i.v.) or subcutaneous (s.c.) dose. A subset (n=4) meeting the acceptance criteria was subsequently profiled in the dog (single i.v. dose) and non-human primate (single i.v. and s.c. dose). […] Low-binding plasticware containers were used during preparation and sample handling to avoid non-specific binding.
After dosing, PK samples were collected from the dorsal metatarsal vein. Blood of each sample was transferred into plastic micro centrifuge tubes containing EDTA-K2, inverted several times for proper mixing of contents and then placed on wet ice. The blood samples were centrifuged at 4° C. to obtain plasma and stored at −75° C. prior to analysis.
Samples analysis: Samples were analyzed by LC-MS/MS. Calibration standards were injected at the beginning and end of each batch and the determined concentration for each prepared standard was used to construct a calibration curve. Plasma and dose aliquot sample concentrations were determined from the plasma calibration curve.
Data analysis: Plasma concentration data was analyzed by non-compartmental analysis (NCA) using Phoenix Winnonlin v. 8.3.3.33. Linear trapezoidal rule was used for increasing values and log trapezoidal rule was used for decreasing values, applying uniform weighting for lambda_z calculations. Subcutaneous bioavailability was calculated as the ratio AUC(s.c.)0-inf/AUC(i.v.)0-inf. Reported values (Table 18) represent the mean of the individual estimates.

[9] = Table 6, peptides modified at position 17
[10] = Table 7, peptides modified at position 20

SMILES | EC50 [1, 9] | remaining at 5 min, 3.3 mg/mL [2] | remaining at 10 min, 3.3 mg/mL [2] | remaining at 0.25 h, 3.3 mg/mL [2] | remaining at 0.5 h, 3.3 mg/mL [2] | EC50 [3, 9] | % Relative Potency Ratio ([3]; Table 6) | remaining at 0.25 h, 125 µM [4] | remaining at 0.5 h, 125 µM [4] | remaining at 4 h [5] | remaining at 24 h [5] | % intact peptide over time [5] | GLP-1R KO % glucose change 120 min [6] | WT % glucose change 120 min [7] | bioavailability [8] | half-life ([8]; iv) | EC50 [1, 10] | EC50 [3, 10] | % Relative Potency Ratio ([3]; Table 7)
CCCCCCCCCCCCCCCCCC(=O)N[C@@H](CCC(=O)N[C@@H](CCC(=O)NCCOCCOCCC(=O)NCCOCCOCCC(=O)NCCCC[C@H](NC(=O)[C@H](CO)NC(=O)[C@H](CC(=O)O)NC(=O)[C@H](CC(C)C)NC(=O)[C@](C)(Cc1ccccc1)NC(=O)[C@H](CCCCN)NC(=O)[C@H](CO)NC(=O)[C@@H](NC(=O)[C@H](CC(=O)O)NC(=O)[C@H](CO)NC(=O)[C@@H](NC(=O)[C@](C)(Cc1ccccc1)NC(=O)[C@H](CO)NC(=O)CNC(=O)[C@H](CCC(N)=O)NC(=O)[C@H](CO)NC(=O)[C@@H](N)Cc1c[nH]cn1)[C@@H](C)O)C(C)C)C(=O)N[C@@H](C)C(=O)N[C@@H](C)C(=O)N[C@@H](CCC(N)=O)C(=O)N[C@@H](CC(=O)O)C(=O)N[C@@](C)(Cc1ccccc1)C(=O)N[C@H](C(=O)N[C@@H](CCC(N)=O)C(=O)NC(C)(C)C(=O)N[C@@H](CC(C)C)C(=O)N[C@@H](CCC(=O)O)C(=O)N[C@@H](C)C(=O)NCC(=O)NCC(N)=O)C(C)C)C(=O)O)C(=O)O [Peptide 78] (H-HSQGS[αMeF]TSDVSK[αMeF]LDSK([PEG2-PEG2-γGlu-γGlu-Stearoyl])AAQD[αMeF]VQ[Aib]LEAGG-NH2; N-terminus assumed) | 0.00897 nM | 83% | 76% | 69% | 58% | 0.00114 nM | 15.6 | 100% | 100% | 100% | 100% | 100% | 51.3% | −42.0% | – | – | – | – | –
CC(C)C[C@H](NC(=O)[C@H](Cc1c[nH]c2ccccc12)NC(=O)[C@H](CCC(N)=O)NC(=O)[C@@H](NC(=O)[C@H](Cc1ccccc1)NC(=O)[C@H](CC(=O)O)NC(=O)[C@H](CCCNC(=N)N)NC(=O)[C@H](C)NC(=O)[C@H](CCCNC(=N)N)NC(=O)[C@H](CCCCNC(=O)COCCOCCNC(=O)COCCOCCNC(=O)CC[C@H](NC(=O)CCCCCCCCCCCCCCCCC(=O)O)C(=O)O)NC(=O)[C@H](CCCCN)NC(=O)[C@H](CC(=O)O)NC(=O)[C@H](CC(C)C)NC(=O)[C@](C)(Cc1ccccc1)NC(=O)[C@H](CCCCN)NC(=O)[C@H](CO)NC(=O)[C@@H](NC(=O)[C@H](CC(=O)O)NC(=O)[C@H](CO)NC(=O)[C@@H](NC(=O)[C@H](Cc1ccccc1)NC(=O)[C@@H](NC(=O)CNC(=O)[C@H](CCC(N)=O)NC(=O)C(C)(C)NC(=O)[C@@H](N)Cc1c[nH]cn1)[C@@H](C)O)[C@@H](C)O)C(C)C)C(C)C)C(=O)N[C@@H](CC(C)C)C(=O)NC(C)(C)C(=O)N[C@@H](CCC(=O)O)C(N)=O [Peptide 472] (H-H[Aib]QGTFTSDVSK[αMeF]LDKK([AEEA-AEEA-γGlu-C18 diacid])RARDFVQWLL[Aib]E-NH2; N-terminus assumed) | 0.0111 nM | – | – | – | – | 0.00763 nM | 2.9 | – | – | – | – | – | – | – | 83% | 2.9 h | – | – | –
CC[C@H](C)[C@H](NC(=O)C(C)(C)NC(=O)[C@H](CCC(N)=O)NC(=O)[C@@H](NC(=O)[C@](C)(Cc1ccccc1)NC(=O)[C@H](CC(=O)O)NC(=O)[C@H](CCCCNC(=O)COCCOCCNC(=O)COCCOCCNC(=O)CC[C@H](NC(=O)CC[C@H](NC(=O)CCCCCCCCCCCCCCCCCCC(=O)O)C(=O)O)C(=O)O)NC(=O)[C@H](C)NC(=O)[C@H](C)NC(=O)[C@H](CCCNC(=N)N)NC(=O)[C@H](CO)NC(=O)[C@H](CC(=O)O)NC(=O)[C@H](CC(C)C)NC(=O)[C@](C)(Cc1ccccc1)NC(=O)[C@H](CCCCN)NC(=O)[C@H](CO)NC(=O)[C@@H](NC(=O)[C@H](CC(=O)O)NC(=O)[C@H](CO)NC(=O)[C@@H](NC(=O)[C@H](Cc1ccccc1)NC(=O)[C@H](CO)NC(=O)CNC(=O)[C@H](Cc1c[nH]cn1)NC(=O)C(C)(C)NC(=O)[C@@H](N)Cc1c[nH]cn1)[C@@H](C)O)C(C)C)C(C)C)C(=O)N[C@@H](C)C(=O)N[C@@H](CC(N)=O)C(=O)N[C@H](C(N)=O)[C@@H](C)O [Peptide 282] (H-H[Aib]HGSFTSDVSK[αMeF]LDSRAAK([AEEA-AEEA-γGlu-γGlu-C20 diacid])D[αMeF]VQ[Aib]IANT-NH2) | – | – | – | – | – | – | – | 83% | 76% | 100% | 97% | 100% | – | – | – | – | 1.14 nM | 1.23 nM | 1.8
